Patent publication US12612354B2, “Cyclopentenones derivatives and their use as antibiotics” (Centre National de la Recherche Scientifique (CNRS), priority 2020, dated 2026)
Converted amounts (≈) assume the structure as drawn. Like-named read-outs stand apart in the source and are kept apart here.

Assays:
Type in all cases: cell-based
[1] = system: Staphylococcus aureus ATCC 25923; assay: Minimum inhibitory concentration (MIC), microbroth dilution assay; conditions: Mueller-Hinton broth
Protocol: (§1) Pathogenic bacteria were revived by streaking bacteria on 100 mm Petri dishes containing the suitable medium recommended by ATCC protocol, overnight at 30 to 37° C.: Luria-Bertani Broth (LB, Difco, Thermo Fisher Scientific Inc.), Tryptic Soy Broth (TSB, Difco, Thermo Fisher Scientific Inc.), Nutrient Broth (NB, Difco, Thermo Fisher Scientific Inc.), supplemented with 2% of agar (Granulated Agar, Difco, Thermo Fisher Scientific Inc.)
(§2) For each pathogen, several colonies were collected with a loop and transfered in 10 ml of sterile Mueller-Hinton broth (Sigma) medium and incubated on a rotary shaker (130 rpm) […] at 30 to 37° C. The OD at 600 nm was measured and adjusted to 0.5 OD, then the solution was diluted 400-fold to have the appropriate inoculum
(§3) The antimicrobial susceptibility was carried out by microbroth dilution assay. Tests were performed on 96-well plates with 100 μL of Mueller-Hinton broth (Sigma) medium final volume and a final bacterial concentration of 5.10^5 CUF/ml. The tested compounds were solubilized in dimethyl sulfoxide (DMSO) given 10 mg/mL (then expressed in μM) stock solution. The stock solutions were diluted from 100 μg/ml to 0.195 μg/ml for testing.
(§4) Compounds Ia to Ie have also been tested on Staphylococcus aureus ATCC 25923 strain and Staphylococcus aureus BAA-1766 (MRSA) strain (both Gram-positive) by using the screening method of the measurement of MIC (minimum inhibitory concentration).
(§5) This technique enables to determine the minimum concentration that causes total inhibition of the growth of the target pathogen.

[2] = system: Staphylococcus aureus BAA-1766 (MRSA); assay: as above; conditions: S. aureus BAA-1766 (MRSA), Mueller-Hinton broth
Protocol: as §1, §2, §3, §4, §5

[3] = system: Escherichia coli ATCC 25922; assay: Kirby-Bauer disk diffusion susceptibility test (inhibition zone); conditions: for inhibition of growth at 100 µg/disc: ATCC25922, 24 h, 100 μg of compound; for inhibition activity (inhibition zone): 12.5, 25, 50 and 100 μg per disc, FIG. 4
Protocol: (§6) FIG. 4: Kirby-Bauer Disk diffusion susceptibility test on Escherichia coli ATCC 25922 with compounds Ia and Ib at 12.5, 25, 50 and 100 μg and the reference gentamicin at 10 μg; left: graph representing the diameter of the inhibition zone as a function of each sample; right: photo of the petri dish illustrating the inhibition zones with Ia at 12.5, 25, 50 and 100 μg.
(§7) Pathogenic bacteria were revived by streaking bacteria on 100 mm Petri dishes containing the suitable medium recommended by ATCC protocol, overnight at 30 to 37° C.: Luria-Bertani Broth (LB, Difco, Thermo Fisher Scientific Inc.), Tryptic Soy Broth (TSB, Difco, Thermo Fisher Scientific Inc.), Nutrient Broth (NB, Difco, Thermo Fisher Scientific Inc.), supplemented with 2% of agar (Granulated Agar, Difco, Thermo Fisher Scientific Inc.).
(§8) For each pathogen, several colonies were collected with a loop and transferred in 5 ml of sterile NB medium and incubated on a rotary shaker (130 rpm) overnight at 30 to 37° C.
(§9) 150 mm Nutrient Broth Agar plates were swabbed with inocula and kept for 15 min for absorption. Pre-sterilized six-millimeter Whatman No. 1 discs were placed in the Petri dishes and 12.5, 25, 50 and 100 μg of the test compounds in DMSO (10 mg/ml) were applied to the sterile disc papers. The standard drug gentamycin (10 μg) was used as a positive reference standard to determine the sensitivity of each bacterial species and DMSO as a negative control. Then the plates were incubated at 30° or 37° C. for 24 h and inhibition diameters were measured.
Compounds Ia to Ic have also been tested on the following pathogenic bacteria in order to evaluate their inhibition efficacy by the Petri dish inhibition zone method: • Staphylococcus aureus ATCC 25923—Gram-positive (compounds Ia, Ib and Ic tested) • Enterobacter cloacae ATCC 13047—Gram-negative (compounds Ia and Ib tested) • Acinetobacter baumannii ATCC 19606—Gram-negative (compounds Ib and Ic tested) • Escherichia coli ATCC 25922—Gram-negative (compounds Ia and Ib tested)
This technique enables to visualize the potential for inhibiting the growth of target pathogenic bacteria. A dose-response study at 12.5, 25, 50 and 100 μg of each compound has been carried out, comparing the inhibition zones with 10 μg gentamicin. […] Best results are obtained for Gran negative bacteria, especially Enterobacter cloacae as represented on FIG. 2.
Compounds Ib, Ic, Ij, Ik, Il, Im, Ih, Ig, Ii, Id and If have also been tested on the following pathogenic bacteria in order to evaluate their inhibition efficacy by the Petri dish inhibition zone method: • Micrococcus luteus ATCC10240; • Bacillus subtilis ATCC6633; • Escherichia coli ATCC 25922.
The percentage of inhibition growth at 100 μg of each tested compound has been determined.

[4] = system: Bacillus subtilis ATCC6633; assay: Petri dish inhibition zone method, % inhibition of growth; conditions: 24 h, 100 μg of compound
Protocol: (§10) Pathogenic bacteria were revived by streaking bacteria on 100 mm Petri dishes containing the suitable medium recommended by ATCC protocol, overnight at 30 to 37° C.: Luria-Bertani Broth (LB, Difco, Thermo Fisher Scientific Inc.), Tryptic Soy Broth (TSB, Difco, Thermo Fisher Scientific Inc.), Nutrient Broth (NB, Difco, Thermo Fisher Scientific Inc.), supplemented with 2% of agar (Granulated Agar, Difco, Thermo Fisher Scientific Inc.). For each pathogen, several colonies were collected with a loop and transferred in 5 ml of sterile NB medium and incubated on a rotary shaker (130 rpm) overnight at 30 to 37° C. 150 mm Nutrient Broth Agar plates were swabbed with inocula and kept for 15 min for absorption. Pre-sterilized six-millimeter Whatman No. 1 discs were placed in the Petri dishes and 12.5, 25, 50 and 100 μg of the test compounds in DMSO (10 mg/ml) were applied to the sterile disc papers. The standard drug gentamycin (10 μg) was used as a positive reference standard to determine the sensitivity of each bacterial species and DMSO as a negative control. Then the plates were incubated at 30° or 37° C. for 24 h and inhibition diameters were measured. Compounds Ib, Ic, Ij, Ik, Il, Im, Ih, Ig, Ii, Id and If have also been tested on the following pathogenic bacteria in order to evaluate their inhibition efficacy by the Petri dish inhibition zone method: • Micrococcus luteus ATCC10240; • Bacillus subtilis ATCC6633; • Escherichia coli ATCC 25922. The percentage of inhibition growth at 100 μg of each tested compound has been determined.

[5] = system: Micrococcus luteus ATCC10240; assay: as above; conditions: 24 h, 100 μg of compound
Protocol: as §10

[6] = system: Staphylococcus aureus ATCC 25923; assay: Kirby-Bauer disk diffusion susceptibility test (inhibition zone); conditions: S. aureus ATCC 25923; 12.5, 25, 50 and 100 μg per disc; FIG. 1
Protocol: as §6, with “FIG. 1:” for “FIG. 4:”, “on Staphylococcus aureus” for “on Escherichia coli”, “ATCC 25923” for “ATCC 25922”, “compounds Ia, Ib” for “compounds Ia”, “and Ic” for “and Ib”, “with Ic” for “with Ia”
as §7, §8, §9
Compounds Ia to Ic have also been tested on the following pathogenic bacteria in order to evaluate their inhibition efficacy by the Petri dish inhibition zone method: • Staphylococcus aureus ATCC 25923—Gram-positive (compounds Ia, Ib and Ic tested) • Enterobacter cloacae ATCC 13047—Gram-negative (compounds Ia and Ib tested) • Acinetobacter baumannii ATCC 19606—Gram-negative (compounds Ib and Ic tested) • Escherichia coli ATCC 25922—Gram-negative (compounds Ia and Ib tested) […]

[7] = system: Acinetobacter baumannii ATCC 19606; assay: as above; conditions: 12.5, 25, 50 and 100 μg per disc, FIG. 3
Protocol: as §6, with “FIG. 3:” for “FIG. 4:”, “on Acinetobacter baumanii” for “on Escherichia coli”, “ATCC 19606” for “ATCC 25922”, “compounds Ib” for “compounds Ia”, “and Ic” for “and Ib”, “with Ib and Ic” for “with Ia”
as §7, §8
as §9, with “The standard drug gentamycin (10 μg) was used as a positive reference standard to determine the sensitivity of each bacterial species and DMSO as a negative control.” left out, “measured. […]” for “measured.”

[8] = system: Enterobacter cloacae ATCC 13047; assay: as above; conditions: 12.5, 25, 50 and 100 μg per disc, FIG. 2
Protocol: as §6, with “2:” for “4:”, “Enterobacter cloacae” for “Escherichia coli”, “13047” for “25922”
as §7, §8
as §9, with “The standard drug gentamycin (10 μg) was used as a positive reference standard to determine the sensitivity of each bacterial species and DMSO as a negative control.” left out, “measured. […]” for “measured.”

[9] = Staphylococcus aureus, ATCC25923, S. aureus ATCC 25923, read-out: MIC

Row | MIC [1, 9] | MIC [2] | MIC ([1]; S. aureus ATCC 25923) | Structure (SMILES) | inhibition of growth at 100 µg/disc [3] | inhibition of growth at 100 µg/disc [4] | inhibition of growth at 100 µg/disc [5] | inhibition activity (inhibition zone) [6] | inhibition activity (inhibition zone) [7] | inhibition activity (inhibition zone) [8] | inhibition activity (inhibition zone) [3]
1 | 6.25 µg/mL (≈ 28.9 µM) | 6.25 µg/mL (≈ 28.9 µM) |  | CC(=O)O[C@H]1C=CC(=O)[C@@H]1c1ccccc1 (racemic) [Ie] |  |  |  |  |  |  | 
2 |  |  |  | O=C1C=C[C@@](O)(CO)[C@H]1c1ccc2c(c1)OCO2 (racemic) [Ii] | 45% | 0% | 0% |  |  |  | 
3 |  |  |  | O=C1C=C[C@@](O)(CO)[C@H]1c1ccc(F)cc1 (racemic) [Ig] | 55% | 18% | 0% |  |  |  | 
4 | 6.25 µg/mL (≈ 30 µM) | 37.5 µg/mL (≈ 180 µM) | 6.26 µg/mL (≈ 30 µM) | O=C1C=C[C@H](O)[C@H]1c1ccccc1Cl (racemic) [Ic] | 35% | 31% | 33% | inhibition activity | inhibition activity |  | 
5 |  |  |  | O=C1C=C[C@H](O)C1c1cccc2ccccc12 (mixture of isomers) [Im] | 47% | 56% | 51% |  |  |  | 
6 |  |  |  | COc1ccc(C2C(=O)C=C[C@@H]2O)cc1 (mixture of isomers) [Ij] | 62% | 61% | 39% |  |  |  | 
7 | 25 µg/mL (≈ 144 µM) | > 50 µg/mL |  | O=C1C=C[C@H](O)[C@H]1c1ccccc1 (relative stereo) [Ia, (4S*,5R*)-4-hydroxy-5-phenyl-cyclopent-2-en-1-one] |  |  |  | inhibition activity |  | inhibition activity | inhibition activity
8 | 12.5 µg/mL (≈ 59.9 µM) | 18.8 µg/mL (≈ 89.9 µM) |  | O=C1C=C[C@H](O)[C@H]1c1ccc(Cl)cc1 (racemic) [Ib] | 60% | 51% | 68% | inhibition activity | inhibition activity | inhibition activity | inhibition activity
9 |  |  |  | O=C1C=C[C@@](O)(CO)[C@H]1c1ccccc1 (racemic) [If] | 57% | 0% | 21% |  |  |  | 
10 |  |  |  | COc1cccc(C2C(=O)C=C[C@@H]2O)c1 (mixture of isomers) [Ik] | 42% | 48% | 23% |  |  |  | 
11 |  |  |  | O=C1C=C[C@H](O)C1c1ccc2ccccc2c1 (mixture of isomers) [Il] | 40% | 57% | 50% |  |  |  | 
12 |  |  |  | COc1ccc([C@H]2C(=O)C=C[C@@]2(O)CO)cc1 (racemic) [Ih] | 55% | 0% | 0% |  |  |  | 
13 | 12 µg/mL (≈ 50.3 µM) | 12 µg/mL (≈ 50.3 µM) |  | O=C1C=C[C@@](O)(CO)[C@H]1c1ccc(Cl)cc1 (racemic) [Id] | 45% | 30% | 0% |  |  |  | 
